Measurements: article PMC7366829 (Acta biomaterialia, 2020)

Legend:
MelBSt = MelBSt (Salmonella enterica, UniProt P30878); assay: Trp to D2G FRET; type: binding; conditions: 10 μM D2G; 23 °C; DDM or GNG-3,14 extract; active site
MelBEc = MelBEc (Escherichia coli, UniProt P02921); assay: Trp to D2G FRET; type: binding; conditions: 10 μM D2G; 23 °C; GNG-3,14 extract; active site
β2AR = β2AR (Homo sapiens, UniProt P07550); assay: radioligand binding, G-50 column; conditions: 10 nM [3H]-DHA; pH 7.5; 100 mM NaCl; room temperature; antagonist; labelled compound
Sequence of β2AR (P07550 whole entry): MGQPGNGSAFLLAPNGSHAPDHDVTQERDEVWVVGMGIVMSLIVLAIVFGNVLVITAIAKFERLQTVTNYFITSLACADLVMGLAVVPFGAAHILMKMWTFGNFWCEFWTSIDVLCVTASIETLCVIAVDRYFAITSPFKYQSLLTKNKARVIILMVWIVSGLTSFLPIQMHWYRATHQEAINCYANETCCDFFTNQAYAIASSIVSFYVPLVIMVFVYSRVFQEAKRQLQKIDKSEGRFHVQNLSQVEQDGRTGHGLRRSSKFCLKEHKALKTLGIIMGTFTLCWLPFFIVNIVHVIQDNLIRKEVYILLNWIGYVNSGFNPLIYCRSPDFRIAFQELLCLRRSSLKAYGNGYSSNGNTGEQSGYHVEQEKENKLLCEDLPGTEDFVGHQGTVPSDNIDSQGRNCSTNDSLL

Sequence of MelBSt (P30878 whole entry): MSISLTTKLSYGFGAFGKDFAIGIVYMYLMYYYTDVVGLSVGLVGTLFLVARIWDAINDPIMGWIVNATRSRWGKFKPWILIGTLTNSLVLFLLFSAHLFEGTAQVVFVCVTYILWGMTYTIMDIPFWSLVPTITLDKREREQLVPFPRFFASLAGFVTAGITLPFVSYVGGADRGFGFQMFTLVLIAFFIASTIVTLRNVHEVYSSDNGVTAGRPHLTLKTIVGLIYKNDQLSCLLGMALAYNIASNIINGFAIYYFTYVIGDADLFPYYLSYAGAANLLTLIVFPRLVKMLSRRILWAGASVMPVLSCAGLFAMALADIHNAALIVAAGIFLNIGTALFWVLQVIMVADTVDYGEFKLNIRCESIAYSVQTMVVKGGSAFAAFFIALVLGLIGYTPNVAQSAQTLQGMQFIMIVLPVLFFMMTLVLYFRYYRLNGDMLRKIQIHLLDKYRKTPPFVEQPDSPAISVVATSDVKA
Sequence of MelBEc (P02921 2-473): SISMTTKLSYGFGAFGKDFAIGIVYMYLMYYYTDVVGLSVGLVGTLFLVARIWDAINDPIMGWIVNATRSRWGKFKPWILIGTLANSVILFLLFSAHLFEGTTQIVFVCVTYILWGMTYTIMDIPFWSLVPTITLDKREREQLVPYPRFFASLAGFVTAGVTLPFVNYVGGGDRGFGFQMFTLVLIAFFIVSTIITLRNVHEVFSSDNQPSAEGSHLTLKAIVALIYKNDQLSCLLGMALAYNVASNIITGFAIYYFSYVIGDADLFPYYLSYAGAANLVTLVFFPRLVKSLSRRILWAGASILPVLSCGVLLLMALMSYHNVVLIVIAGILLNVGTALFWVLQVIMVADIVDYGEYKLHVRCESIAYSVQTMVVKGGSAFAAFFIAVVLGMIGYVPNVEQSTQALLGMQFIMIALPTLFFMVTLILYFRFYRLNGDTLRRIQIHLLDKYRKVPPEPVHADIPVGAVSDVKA

| Compound | Trp to D2G FRET (MelBSt) | Trp to D2G FRET (MelBEc) | radioligand binding, G-50 column (β2AR) |
| --- | --- | --- | --- |
| CN(C)c1cccc2c(S(=O)(=O)NCCS[C@@H]3O[C@H](CO)[C@H](O)[C@H](O)[C@H]3O)cccc12 [D2G, 2’-(N-Dansyl)aminoalkyl-1-thio-β-D-galactopyranoside] | DDM or GNG-3,14-extracted MelBSt responded to addition of D^2G and melibiose | GNG-3,14-extracted MelBEc was functional under the same conditions | – |
| CCCc1ccccc1OCC(O)CNC(C)C (stereo not drawn) [[3H]-dihydroalprenolol] | – | – | ligand binding assay using a radio-active antagonist ([^3H]-DHA) |
